The text below walks through data of patent publication US20090036410A1, “Structured Phospholipids” (BTG INTERNATIONAL LIMITED, priority 2004, published 2009).

A short description of series [1]: Storage stability / handling of the isolated phospholipid. The class given is physicochemical. The text has this: Suitable diluents and carriers can be found in the literature in texts such as Remington's Pharmaceutical Sciences. One particular material investigated by the inventors has been PEG (polyethylene glycol) eg. PEG200. This can be used at amounts between 1 and 99% PEG to 99% to 1% by weight of active phospholipid, preferably 20 to 80% PEG to 80 to 20% of phospholipid and more preferably 40 to 60% PEG to 60 to 40% by weight of phospholipid.
The invention provides a first method of its preparation of compounds GGPc, DHGLADHGLAPc and AAPc in a one step process (scheme 5, method A) by reaction of sn-glycerophosphocholine cadmium complex with γ-linolenic, dihomo-γ-linolenic, or arachidonic anhydride (formed eg. from the n-6 acid and dicylohexylcarbodiimide). Purification of the crude product uses eg. copper sulfate washes to remove DMAP and column chromatography to take out other by-products. The first batch of product for the γ-linolenic product (44 g, 85% purity) was obtained as a yellow wax.
On a 7 g scale higher purity GGPc could be obtained by more rigorous chromatography. Furthermore freeze-drying a dioxan solution of this material gave a white solid. This solid was hygroscopic and gained weight and went to a foam on prolonged exposure to the atmosphere.

In series [2] the test system is CREAE model MOG in C57BL mice. The series can be described thus: CREAE model, MOG-induced, clinical EAE score. It is filed as in vivo.
In series [3] the test system is acute rat EAE. The conditions noted are these: depending on dose; cited from earlier work.
In series [4] the test system is EAE. Particulars: guinea-pig; cited from earlier work.

Regarding `CCCCC/C=C\C/C=C\C/C=C\CCCCC(=O)OC[C@H](COP(=O)([O-])OCC[N+](C)(C)C)OC(=O)CCCC/C=C\C/C=C\C/C=C\CCCCC` [GGPc, 1,2-Di(γ-linolenyl)-sn-glycerophosphocholine], in series [1] (over 6 months, first batch, initially 85% purity yellow wax, turned brown suggesting oxidation), the “purity after storage (deterioration)” value is 70%. For the same molecule, the “hygroscopicity of freeze-dried white solid” value in series [1] (prolonged exposure to the atmosphere, gained weight and went to a foam) is “hygroscopic”. For the same molecule, the “effect on EAE score compared to CCC (dose response curve)” value in series [2] (100 microL dose, p<0.050 compared to CCC (150 microL)) is reported as “significant effect”. Besides, in series [2] (100 ul of 50% phospholipid in PEG200), the “protection / severity of CREAE” value was “protection/reduced severity”. Also, the “efficacy in the CREAE model compared to the lipid GGG of PCT/GB2004/003524” value in series [2] (MOG in C57BL mice, oral, initial results) is listed as “superior in efficacy”. Moreover, in series [2] (dose 100 ul, oral), the “protection in CREAE” value was “excellent protection”. Besides, the “shape of dose response curve” value in series [2] (doses 25, 50, 100 and 200 microL) was “bell shaped curve”. The “effect on EAE score (dose response curve)” value in series [2] (higher dose of 200microL) is “no effect”.

Turning to `CCCCC/C=C\C/C=C\CCCCCCCC(=O)O` [linoleic acid], in series [3], the “protection in acute rat EAE” value was “dose-dependent action on the clinical severity but did not abolish it”. Further, the “effect on incidence and severity of EAE” value in series [4] is “partially suppresses”.

`CCCCC/C=C\C/C=C\C/C=C\CCCCC(=O)O` [γ-linolenic acid]: in series [3], the “protection in acute rat EAE” value is “fully protective”.
